Source: US4775685A, “2,4-diphenyl-1,3-dioxanes” (Imperial Chemical Industries PLC, priority 1985, dated 1988)

Experiments:
TXA2 = target: T1, TXA2 (Oryctolagus cuniculus, UniProt Q6WQI8); experiment: Test (a): rabbit aortal strip model, TXA2 antagonism; conditions: (+0.05) for (i)-(iii)
T1 construct: agonist TXA2 (from rabbit platelet-rich plasma) or U46619
T1 sequence (Q6WQI8 1-233): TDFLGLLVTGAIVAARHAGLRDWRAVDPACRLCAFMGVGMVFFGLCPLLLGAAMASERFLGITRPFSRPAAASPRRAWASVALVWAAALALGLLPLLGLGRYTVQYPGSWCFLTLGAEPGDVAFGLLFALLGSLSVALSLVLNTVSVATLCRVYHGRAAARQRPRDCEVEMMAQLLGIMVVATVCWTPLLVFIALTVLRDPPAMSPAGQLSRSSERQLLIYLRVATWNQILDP
Procedure: As stated earlier, the compounds of formula I are antagonists of one or more of the actions of TXA2, for example certain of its actions on blood platelets, the vasculature and/or the lung.
(a) The rabbit aortal strip model devised by Piper and Vane (Nature, 1969, 223, 29-35) using as agonist a freshly prepared sample of TXA2, generated by addition of arachidonic acid (25 μg) to citrated, platelet rich rabbit plasma (250 μl ) and allowing the mixture to aggregate fully over 90 seconds before use; alternatively the TXA2 mimetic agent known as U46619 (described by R. L. Jones et alia in "Chemistry, Biochemistry and Pharmacological Activity of Prostanoids" edited by S. M. Roberts and F. Scheinmann, at page 211; Pergamon Press, 1979) may be used as the agonist; and […]

[1] = target: T2, U46619 stimulated platelet aggregation (Homo sapiens, UniProt P21731); experiment: Test (b): blood platelet aggregation test (U46619, human citrated platelet-rich plasma); type: cell-based
T2 construct: aggregating human, citrated, platelet-rich plasma by addition of the TXA2 mimetic agent U46619; endogenous in cells; host or cells: human platelets in citrated platelet-rich plasma
T2 sequence (P21731 1-343): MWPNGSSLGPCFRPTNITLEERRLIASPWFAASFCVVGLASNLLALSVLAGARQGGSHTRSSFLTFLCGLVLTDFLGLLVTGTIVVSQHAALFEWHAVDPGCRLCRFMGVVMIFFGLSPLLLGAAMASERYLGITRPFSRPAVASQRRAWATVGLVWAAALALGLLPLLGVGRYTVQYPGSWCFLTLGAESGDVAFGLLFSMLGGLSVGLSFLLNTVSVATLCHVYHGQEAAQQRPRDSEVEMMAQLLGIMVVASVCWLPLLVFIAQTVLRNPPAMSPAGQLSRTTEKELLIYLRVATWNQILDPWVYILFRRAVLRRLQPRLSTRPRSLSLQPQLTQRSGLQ
Source text: (b) a blood platelet aggregation test based on that described by Born (Nature, 1962, 194, 927-929) and involving:
(i) aggregating human, citrated, platelet-rich plasma by addition of the TXA2 mimetic agent U46619 so that a dose-response curve is generated;
(iii) calculating a KB value indicating potency of TXA2 antagonism for the test compound, averaged over several concentrations, from the calculated 50% response value for U46619 aggregation in the presence and absence of test compound; and […]

Structure (SMILES)	pA2 (TXA2)	Kb [1] [nM]
O=C(O)CC/C=C\C[C@@H]1CO[C@H](c2ccccc2Cl)O[C@@H]1c1ccccc1O (relative stereo) [compound (i), 4(Z)-6-([2,4,5-cis]-2-o-chlorophenyl-4-o-hydroxyphenyl-1,3-dioxan-5-yl)hexenoic acid]	8.02	–
N#Cc1ccccc1[C@H]1OC[C@@H](C/C=C\CCC(=O)O)[C@@H](c2ccccc2O)O1 (relative stereo) [compound (ii), 4(Z)-6-([2,4,5-cis]-2-o-cyanophenyl-4-o-hydroxyphenyl-1,3-dioxan-5-yl)hexenoic acid]	8.09	0.834

Second part, the molecule after the results:

pA2 (TXA2)	Kb [1] [nM]	Structure (SMILES)
6.22	–	O=C(O)CCC/C=C\C[C@@H]1CO[C@H](c2ccccc2Cl)O[C@@H]1c1ccccc1 (relative stereo) [(iv), 5(Z)-7-([2,4,5-cis]-2-o-chlorophenyl-4-phenyl-1,3-dioxan-5-yl)heptenoic acid, reference compound]
5.65	–	N#Cc1ccc([C@H]2OC[C@@H](C/C=C\CCCC(=O)O)[C@@H](c3ccccc3)O2)cc1 (relative stereo) [(v), 5(Z)-7([2,4,5-cis]-2-p-cyanophenyl-4-phenyl-1,3-dioxan-5-yl)heptenoic acid, reference compound]
7.45	5.49	N#Cc1ccc([C@H]2OC[C@@H](C/C=C\CCC(=O)O)[C@@H](c3ccccc3O)O2)cc1 (relative stereo) [compound (iii)]
